Results on nine molecules are retold here after US7935688B2, “Vitamin D-like compound” (Chugai Seiyaku Kabushiki Kaisha, priority 2005, dated 2011).

In assay [1] the test system is Sprague-Dawley female rats subjected to ovariectomy (OVX). Put plainly: Effect of increasing bone density in ovariectomized rats (dual X-ray bone densitometry). The class given is in vivo, rat. The settings on record: forcibly orally, five times per week, pathological control group (vehicle) = 100%. Here is the method: The compound of the present invention was adjusted to each concentration using middle chain triglyceride (MCT) as a base. The adjusted solution was stored under shading at 4° C. until use.
Seven-week-old Sprague-Dawley (Crj:CD(SD)) female rats (Charles River Laboratories Japan, Inc.) were preliminarily bred for one week in an environment at a room temperature of 20 to 26° C., at a humidity of 35 to 75% and with an air change of 10 times or more per hour. The rats were allowed to freely take tap water and CE-2 (CLEA Japan, Inc.) as a feed.
After preliminary breeding, the animals were subjected to ovariectomy (OVX) and divided into groups (eight animals per group) on the day after the operation. Only MCT as a base was forcibly orally administered to the sham operation group (sham) and the pathological control group (OVX-vehicle) at a dose of 1 mL/kg (five times per week). The compound of the present invention was also forcibly orally administered at the same dose five times per week.
The animals were bred in a metabolic cage and urine was collected for 24 hours after the final administration. Blood was collected from the abdominal aorta under ether anesthesia for 24 hours after the final administration. The blood was allowed to stand at room temperature for 30 minutes and then centrifuged to provide serum. The femur and lumbar spine were collected and stored in 70% ethanol until bone density measurement.
The bone density of the femur and the second to fifth lumbar spines of the isolated lumbar spines was measured by the dual X-ray bone densitometry system DCS-600-EX (ALOKA). The distal femur bone density was measured for three […] regions out of 10 regions of the femur equally divided in length. The bone density in each site was described based on the bone density of the pathological control group (vehicle group) in each experiment as 100%.
The effects of the compounds of the present invention on the lumbar spine bone density are shown in Table 2 as an example of the obtained results.

For assay [2], the system named is osteocalcin production in MG-63 cells. As to the kind of experiment: Osteocalcin production in MG-63 cells (Gla-type Osteocalcin EIA). To be noted: (EC50 value of 1,25(OH)2D3/EC50 value of each compound)×100; eight hours exposure, then four days culture. The class given is cell-based, human. Here is the method: mg-63 was obtained from Institute for Fermentation, Osaka as a human osteoblast-like cell line. MG-63 cells were maintained and cultured in a MEM medium (Minimum essential medium; pH 7.0; Invitrogen Corporation, Carlsbad, Calif., USA) containing 5% fetal bovine serum (FBS; HyClone, Logan, Utah, USA).
MG-63 cells were adjusted to a density of 4.0×10^4 cells/mL, plated in a 96-well plate at 200 μL per well, and cultured under conditions of 37° C. and 5% carbon dioxide for 24 hours.
After removing the medium, MEM containing 5% charcoal/dextran treated FBS (DCC-FBS; Hyclone, Logan, Utah, USA) was added at 180 μL/well. The test substance (1.0×10^−3 mol/L) was diluted with dimethyl sulfoxide (DMSO) to 1.0×10^−4 mol/L, 1.0×10^−5 mol/L, 1.0×10^−6 mol/L, 1.0×10^−7 mol/L and 1.0×10^−8 mol/L. 1,25(OH)2D3 was used as a positive control. Like the test substance, 1,25(OH)2D3 was diluted with DMSO. 0.02 mL of the positive control and the test substance diluted 100-fold with MEM containing 5% DCC-FCS was added to each well of the 96-well plate, so that the final drug concentration was 1.0×10^−6 mol/L to 1.0×10^−11 mol/L. Thereafter, the cells were cultured under conditions of 37° C. and 5% carbon dioxide for eight hours.
After culturing for eight hours, the medium was removed, and MEM containing 5% DCC-FBS was added at 0.2 mL per well. The cells were cultured under conditions of 37° C. and 5% carbon dioxide for four days, and the medium was recovered. The medium was stored at −80° C. until osteocalcin measurement.
The Gla-type Osteocalcin EIA kit (Takara Bio Inc., Tokyo, Japan) was used for measurement of osteocalcin. Measurement was carried out using a microplate reader (Model 3550, Bio-Rad Laboratories, Inc., Hercules, Calif., USA) at a wavelength of 450 nm, and the results were analyzed by Microplate Manager III (Bio-Rad Laboratories, Inc., ver. 1.57).
The median effective concentration (EC50) was calculated from the osteocalcin concentration. Potency of induction of each compound was calculated as a ratio of EC50 of 1,25(OH)2D3 to EC50 of the compound. The relation between diseases and induction of osteocalcin production is described in Lancet (1984 May 19), 1 (8386), 1091-3; Steroids 66, 159-170 (2001); and Journal of Steroid Biochemistry & Molecular Biology 89-90, 269-271 (2004), for example.
The osteocalcin production level in MG-63 cells (%) was calculated by the formula: (EC50 value of 1,25(OH)2D3/EC50 value of each compound)×100.

As to `CCC(CC)(c1ccc(/C=C/C2(O)CCCCC2)c(C)c1)c1ccc(-c2cc(Cl)ccc2CC(=O)O)c(C)c1` [Example 89, [5-chloro-4′-(1-ethyl-1-{4-[(E)-2-(1-hydroxy-cyclohexyl)-vinyl]-3-methyl-phenyl}-propyl)-2′-methyl-biphenyl-2-yl]-acetic Acid], the “Lumbar spine bone density (%)” value in assay [1] (1.25 μg/kg) is 109.24%; in assay [1] (2.5 μg/kg) it was 121.37%.
`CCC(O)(/C=C/c1ccc(C(CC)(CC)c2ccc(-c3ccc(CC(=O)O)cn3)c(C)c2)cc1C)CC` [Example 81, [6-(4-{1-ethyl-1-[4-((E)-3-ethyl-3-hydroxy-1-pentenyl)-3-methyl-phenyl]-propyl}-2-methyl-phenyl)-pyridin-3-yl]-acetic Acid]: the “Lumbar spine bone density (%)” value in assay [1] (0.01 μg/kg) and in assay [1] (0.02 μg/kg) was 115.66% throughout. The “Osteocalcin production level in MG-63 cells (%)” value in assay [2] is 652%.
`CCC(CC)(c1ccc(C#CC(O)(C(F)(F)F)C(F)(F)F)c(C)c1)c1ccc(-c2cncc(CC(=O)O)c2)c(C)c1` [Example 80, [5-(4-{1-ethyl-1-[3-methyl-4-(4,4,4-trifluoro-3-hydroxy-3-trifluoromethyl-1-butynyl)-phenyl]-propyl}-2-methyl-phenyl)-pyridin-3-yl]-acetic Acid]: the “Lumbar spine bone density (%)” value in assay [1] (0.05 μg/kg) turned out to be 110.75%; in assay [1] (0.1 μg/kg), 116.68%.
On to `CCC(CC)(c1ccc(/C=C/C(O)(C(F)(F)F)C(F)(F)F)c(C)c1)c1ccc(-c2cccc(CC(=O)O)c2)c(C)c1` [Example 71, (4′-{1-ethyl-1-[3-methyl-4-((E)-4,4,4-trifluoro-3-hydroxy-3-trifluoromethyl-1-butenyl)-phenyl]-propyl}-2′-methyl-biphenyl-3-yl)-acetic Acid], for which the “Lumbar spine bone density (%)” value in assay [1] (0.025 μg/kg) came to 110.58%; in assay [1] (0.05 μg/kg) it was 115.09%. For the same molecule, the “Osteocalcin production level in MG-63 cells (%)” value in assay [2] is on record as 746%.
In the case of `CCC(CC)(c1ccc(/C=C/C(O)(C(F)(F)F)C(F)(F)F)c(C)c1)c1ccc(-c2nc(CC(=O)O)cs2)c(C)c1` [Example 76, [2-(4-{1-ethyl-1-[3-methyl-4-((E)-4,4,4-trifluoro-3-hydroxy-3-trifluoromethyl-1-butenyl)-phenyl]-propyl}-2-methyl-phenyl)-thiazol-4-yl]-acetic Acid], the “Lumbar spine bone density (%)” value in assay [1] (0.015 μg/kg) was determined as 110.22%; in assay [1] (0.03 μg/kg), 111.00%. Further, in assay [2], the “Osteocalcin production level in MG-63 cells (%)” value stood at 407%.
Regarding `CCC(CC)(c1ccc(-c2cncc(CC(=O)O)c2)cc1)c1ccc(CCC2(O)CCCCC2)c(C)c1` [Example 149, {5-[4-(1-ethyl-1-{4-[2-(1-hydroxy-cyclohexyl)-ethyl]-3-methyl-phenyl}-propyl)-phenyl]-pyridin-3-yl}-acetic Acid], the “Lumbar spine bone density (%)” value in assay [1] (0.075 μg/kg) came out at 111.40%; in assay [1] (0.15 μg/kg), 116.00%. The “Osteocalcin production level in MG-63 cells (%)” value in assay [2] was 1305%.
On to `CCC(CC)(c1ccc(-c2cncc(CC(=O)O)c2)cc1)c1ccc(CCC2(O)CCCC2)c(C)c1` [Example 150, {5-[4-(1-ethyl-1-{4-[2-(1-hydroxy-cyclopentyl)-ethyl]-3-methyl-phenyl}-propyl)-phenyl]-pyridin-3-yl}-acetic Acid], for which the “Osteocalcin production level in MG-63 cells (%)” value in assay [2] was found to be 645%.
The same measure, in the same setting: next, `CCC(CC)(c1ccc(C#CC2(O)CCCCC2)c(C)c1)c1ccc(-c2ccc(CC(=O)O)c(F)c2)c(C)c1` [Example 97, (4′-{1-ethyl-1-[4-(1-hydroxy-cyclohexylethynyl)-3-methyl-phenyl]-propyl}-3-fluoro-2′-methyl-biphenyl-4-yl)-acetic Acid]: 533%; `CCC(CC)(c1ccc(/C=C/C(O)(C(F)(F)F)C(F)(F)F)c(C)c1)c1ccc(-c2ccc(CC(=O)O)cn2)c(C)c1` [Example 74, [6-(4-{1-ethyl-1-[3-methyl-4-((E)-4,4,4-trifluoro-3-hydroxy-3-trifluoromethyl-1-butenyl)-phenyl]-propyl}-2-methyl-phenyl)-pyridin-3-yl]-acetic Acid]: 1848%.
